The values below are quoted from earlier work in patent US20110184054A1, “Alpha-lipoic acid concentrate” (AQUANOVA GERMAN SOLUBILISATE TECHNOLOGIES (AGT) GmbH, priority 2004, published 2011).

Regarding `O=C(O)CCCCC1CCSS1` (stereo not drawn) [α-lipoic acid], the “effect on problems of overweight patients” value in the series on overweight patients was “alleviates their problems”. The appetite suppressing effect result in the series on rats is recorded as “a certain appetite suppressing effect”.
